In patent publication US6624149B2, “Method for nucleic acid transfection of cells” (Genteric, Inc., priority 2000, dated 2003):
Where “and” joins values, the source holds several entries; their conditions need not be identical. Equal values may be shown once.

System: NIH 3T3 cells
Test: Cationic liposome-mediated transfection of cultured cells, luciferase assay
Assay type: cell-based, murine
Conditions: for Luciferase activity, Average / Luciferase activity, Trial 1 to Trial 4: 48 hours; for Luciferase activity, Trial 1 to Trial 4: individual trials
Method: In one embodiment, an appropriate mass of cationic lipid and the neutral lipid dioleoylphosphatidylethanolamine (DOPE) was added as solutions in chloroform to 1.9 mL sample vials to yield the desired molar ratio of cationic lipid:DOPE. The chloroform was removed via rotary evaporation at 37° C. The resulting thin lipid films were placed under vacuum overnight to insure that all traces of solvent have been removed. The lipid mixture was resuspended in 1 mL sterile water at 25° C. until the film is hydrated, and then vortex mixed to afford an emulsion. For the in vitro experiments, these emulsions were formulated as a cationic lipid concentration of 1 mM. For the in vivo experiments, the emulsions were formulated at a cationic lipid concentration of 3 mM.
NIH 3T3 cells were obtained from ATCC (CRL 1658), cultured in Dulbecco's Modified Eagle's Medium with ten percent calf serum, and plated on standard 24 well tissue culture plates 24 hours prior to transfection. Cells were approximately eighty percent confluent at the time of transfection.
NIH 3T3 cells were plated onto 24 well tissue culture plates as described in section 6.1.10. The growth media was removed via aspiration and the cells were washed once with 0.5 mL PBS/well. The liposome/transition metal/nucleic acid solutions were formed through sequential addition of appropriate amounts of DMEM (without serum), the liposome solution (1:1 N,N-[Bis(2-hydroxyethyl)]-N-methyl-N-[2,3-bis(tetradecanoyloxy)propyl] ammonium chloride (DMDHP):DOPE, zinc chloride, and the plasmid DNA pCMV.FOX.Luc.2. The amount of liposome solution used depended on the desired cationic lipid to DNA phosphate ratio. The addition of these substances was followed by thorough vortex mixing and incubation for 15 minutes at room temperature. A 200 microliter aliquot of the resultant transfection complex was added to each well (1 microgram DNA/well, n=4) and the cells were incubated for 4 hours, at 37° C. At this time, 500 microliters of DMEM+10% calf serum/well was added and the cells cultured for approximately 48 hours prior to lysis and analysis. The sample transfections were subsequently repeated a minimum of three times prior to lysis and analysis.
The presently claimed invention describes a new method using a combination of cationic lipid, transition metal enhancer and a nucleic acid of interest for gene delivery. The present invention provides a method that may enhance gene expression by improving the efficiency of gene delivery. This change in gene expression can be quantitated using various assays, such as the luciferase assay. de Wet et al., Molec. Cell Biol. 7:725, 1987. In in vitro experiments described herein in which a cationic lipid/transition metal enhancer/nucleic acid complex was used, the cells were lysed, using a lysis buffer, 48 hours post administration of the pCMV.FOX.Luc-2 containing solution. The lysis buffer contained 100 mM K2PO4 pH 7.0, 1 mM dithiothreitol, and 1% Triton X-100. A 25 μl aliquot of the lysate was analyzed for luciferase activity (de Wet et al., Molec. Cell Biol. 7:725, 1987) using a Monolight 2010 luminometer (Analytical Luminescence Laboratories). Accordingly, luciferase light emissions from each aliquot of the lysis homogenate were measured over a ten second period. Activity was expressed as relative light units, values collectively representing the assay conditions, luciferase concentration, luminometer photomultiplier tube sensitivity and background. Using well known techniques, the luciferase light units may be converted, for example, to picograms of luciferase protein. See, e.g., Felgner et al., U.S. Pat. No. 5,580,899 at Example 13.
To perform this study, cationic lipid/nucleic acid/zinc mixtures were prepared by mixing appropriate amounts of serum-free DMEM, cationic liposomes, zinc chloride and pCMV.FOX.Luc.2 plasmid DNA in a polystyrene tube. […]

[1] = charge ratio 0.5, ZnCl2 1000 μM
[2] = charge ratio 0.75, ZnCl2 0.1 μM
[3] = charge ratio 0.75, ZnCl2 100 μM
[4] = charge ratio 0.75, ZnCl2 1000 μM

## [Cl-].[Cl-].[Zn+2] [ZnCl2, zinc chloride]
Charge ratio 0.5, ZnCl2 0.1 μM
  Luciferase activity, Average: 357320 relative light units
  Luciferase activity, Trial 1 to Trial 4: 487868 relative light units and 426369 relative light units and 256897 relative light units and 258146 relative light units
Charge ratio 0.5, ZnCl2 1 μM
  Luciferase activity, Average: 289649.8 relative light units
  Luciferase activity, Trial 1 to Trial 4: 385049 relative light units and 200471 relative light units and 304108 relative light units and 268971 relative light units
Charge ratio 0.5, ZnCl2 10 μM
  Luciferase activity, Average: 296498.3 relative light units
  Luciferase activity, Trial 1 to Trial 4: 325001 relative light units and 323001 relative light units and 250110 relative light units and 287881 relative light units
Charge ratio 0.5, ZnCl2 100 μM
  Luciferase activity, Average: 690512.3 relative light units
  Luciferase activity, Trial 1 to Trial 4: 351939 relative light units and 252969 relative light units and 294018 relative light units and 1863123 relative light units
[1]
  Luciferase activity, Average: 44053.75 relative light units
  Luciferase activity, Trial 1 to Trial 4: 43835 relative light units and 40236 relative light units and 59395 relative light units and 32749 relative light units
[2]
  Luciferase activity, Average: 528118.8 relative light units
  Luciferase activity, Trial 1 to Trial 4: 613179 relative light units and 556656 relative light units and 437658 relative light units and 504982 relative light units
Charge ratio 0.75, ZnCl2 1 μM
  Luciferase activity, Average: 141950 relative light units
  Luciferase activity, Trial 1 to Trial 4: 127339 relative light units and 236302 relative light units and 123913 relative light units and 80246 relative light units
Charge ratio 0.75, ZnCl2 10 μM
  Luciferase activity, Average: 397689.3 relative light units
  Luciferase activity, Trial 1 to Trial 4: 455299 relative light units and 465986 relative light units and 362168 relative light units and 307304 relative light units
[3]
  Luciferase activity, Average: 334007.5 relative light units
  Luciferase activity, Trial 1 to Trial 4: 404983 relative light units and 351094 relative light units and 358591 relative light units and 221362 relative light units
[4]
  Luciferase activity, Average: 298625.5 relative light units
  Luciferase activity, Trial 1 to Trial 4: 335343 relative light units and 257292 relative light units and 374511 relative light units and 227356 relative light units
Charge ratio 1, ZnCl2 0.1 μM
  Luciferase activity, Average: 931446.8 relative light units
  Luciferase activity, Trial 1 to Trial 4: 901184 relative light units and 862221 relative light units and 1113520 relative light units and 848862 relative light units
Charge ratio 1, ZnCl2 1 μM
  Luciferase activity, Average: 835699.8 relative light units
  Luciferase activity, Trial 1 to Trial 4: 942667 relative light units and 864670 relative light units and 799992 relative light units and 735470 relative light units
Charge ratio 1, ZnCl2 10 μM
  Luciferase activity, Average: 1366067 relative light units
  Luciferase activity, Trial 1 to Trial 4: 2145687 relative light units and 1433861 relative light units and 1202748 relative light units and 681970 relative light units
Charge ratio 1, ZnCl2 100 μM
  Luciferase activity, Average: 359188.5 relative light units
  Luciferase activity, Trial 1 to Trial 4: 262768 relative light units and 379927 relative light units and 447492 relative light units and 346567 relative light units
Charge ratio 1, ZnCl2 1000 μM
  Luciferase activity, Average: 414392 relative light units
  Luciferase activity, Trial 1 to Trial 4: 437998 relative light units and 443459 relative light units and 502263 relative light units and 273848 relative light units
Charge ratio 2, ZnCl2 0.1 μM
  Luciferase activity, Average: 677663.5 relative light units
  Luciferase activity, Trial 1 to Trial 4: 596911 relative light units and 685311 relative light units and 818392 relative light units and 610040 relative light units
Charge ratio 2, ZnCl2 1 μM
  Luciferase activity, Average: 747069.5 relative light units
  Luciferase activity, Trial 1 to Trial 4: 661803 relative light units and 814409 relative light units and 754168 relative light units and 757898 relative light units
Charge ratio 2, ZnCl2 10 μM
  Luciferase activity, Average: 1215879 relative light units
  Luciferase activity, Trial 1 to Trial 4: 1498720 relative light units and 1238992 relative light units and 1207690 relative light units and 918114 relative light units
Charge ratio 2, ZnCl2 100 μM
  Luciferase activity, Average: 827479.8 relative light units
  Luciferase activity, Trial 1 to Trial 4: 768327 relative light units and 880621 relative light units and 941720 relative light units and 719251 relative light units
Charge ratio 2, ZnCl2 1000 μM
  Luciferase activity, Average: 109543.8 relative light units
  Luciferase activity, Trial 1 to Trial 4: 199493 relative light units and 48657 relative light units and 189902 relative light units and 123 relative light units
Depending on the cationic lipid to nucleic acid charge ratio
  enhancement of in vitro transfection by added zinc: two to forty
